Experimental data: patent US20240216352A1 (priority 2022, published 2024)

System: healthy participants
Experiment: Phase 1 Part B multiple ascending dose (MAD): blood pressure
Assay type: in vivo, human
Conditions: for Mean SBP: in mmHg (unit assumed)
Procedure: The study was performed in 3 parts in 112 healthy male and female participants, including 24 Japanese participants. Female participants were to be not of childbearing potential. The present study was designed to evaluate the safety and tolerability, PK, and exploratory PD of an oral suspension of Compound A. Parts A and B (Cohort B1 only) enrolled healthy participants and was conducted at a site in The Netherlands and Part B (Cohort B2 to B5) enrolled healthy non-Japanese participants and was conducted at a site in the United Kingdom (UK). Part C enrolled healthy Japanese participants and was conducted at the same site in the UK.
Part B was a MAD study in a planned number of 6 sequential dose escalation cohorts (10 mg QD, 30 mg QD, 30 mg BID, 60 mg BID, 125 mg BID, and ≤250 mg BID) of 8 healthy participants (6 active+2 placebo) each, under fasted conditions. However, Cohort B6 (≤250 mg BID) was cancelled because sufficient safety and PK data had been obtained at doses up to 125 mg BID. Eligible participants received study drug (Compound A or placebo) administered orally for 14 days.
Physical examinations, vital sign measurements (including orthostasis testing in Cohort A6, Cohort B3 to B5, and C1 to C3 at selected time points), 12-lead electrocardiogram (ECG), and clinical laboratory evaluations were performed at selected times throughout the study. In addition, Holter monitoring was performed for the first 24 hours post dose on Day 1 in Part A (not in FE/pH cohort), and also for the first 24 hours post dose on Day 1 and Day 14 in Parts B and C. Participants were closely monitored for adverse events (AEs). Blood samples were collected for up to 14 days (follow-up visit) after (last) study drug administration for PK analysis. In addition, blood and urine were collected for exploratory biomarker assessments and for biobanking of samples for potential analyses. Urine was collected for potential PK analysis for up to 96 hours after a single dose of Compound A or placebo was administered in the SAD part, and for up to 24 hours after the first (morning) dose of study drug on Day 1 and for up to 24 hours after the last (morning) dose of study drug on Day 14 in the MAD parts.

Compound: CCCN(C)C(=O)OCc1c(-c2ccc(O[C@H]3CCC[C@H](C(=O)O)C3)c(C)n2)nnn1C [Compound A, (1S,3S)-3-((2-methyl-6-(1-methyl-5-(((methyl(propyl)carbamoyl)-oxy)methyl)-1H-1,2,3-triazol-4-yl)pyridin-3-yl)oxy)cyclohexane-1-carboxylic acid]
- Maximum of mean (±SD) reduction in DBP from baseline (MAD 10 mg QD (B1)): 6.8 ± 2.64 mmHg
- Time of maximum mean DBP reduction (MAD 10 mg QD (B1)): 1-5 Day-h
- Mean DBP (MAD 10 mg QD, D 1 2 h): 70.2 mmHg
- Mean SBP (MAD 10 mg QD, D 1 2 h): 112.2
- Mean DBP (MAD 10 mg QD, D 1 4 h): 65.8 mmHg
- Mean SBP (MAD 10 mg QD, D 1 4 h): 109.5
- Mean DBP (MAD 10 mg QD, D 1 8 h): 68.7 mmHg
- Mean SBP (MAD 10 mg QD, D 1 8 h): 112.8
- Mean DBP (MAD 10 mg QD, D 2 24 h): 65.3 mmHg
- Mean SBP (MAD 10 mg QD, D 2 24 h): 108.5
- Mean DBP (MAD 10 mg QD, D 14 312 h): 69.3 mmHg
- Mean SBP (MAD 10 mg QD, D 14 312 h): 112.8
- Mean DBP (MAD 10 mg QD, D 14 314 h): 67.5 mmHg
- Mean SBP (MAD 10 mg QD, D 14 314 h): 113.5
- Mean DBP (MAD 10 mg QD, D 14 317 h): 64.3 mmHg
- Mean SBP (MAD 10 mg QD, D 14 317 h): 114.5
- Mean DBP (MAD 10 mg QD, D 14 320 h): 67.5 mmHg
- Mean SBP (MAD 10 mg QD, D 14 320 h): 111.2
- Mean DBP (MAD 10 mg QD, D 15 336 h): 66.8 mmHg
- Mean SBP (MAD 10 mg QD, D 15 336 h): 110.8
- Maximum of mean (±SD) reduction in DBP from baseline (MAD 30 mg BID (B3)): 11.2 ± 4.58 mmHg
- Maximum of mean (±SD) reduction in SBP from baseline (MAD 30 mg BID (B3)): 15.8 ± 10.19 mmHg
- Time of maximum mean DBP reduction (MAD 30 mg BID (B3)): 1-5 Day-h
- Time of maximum mean SBP reduction (MAD 30 mg BID (B3)): 1-5 Day-h
- Mean DBP (MAD 30 mg BID, D 1 2 h): 63.3 mmHg
- Mean SBP (MAD 30 mg BID, D 1 2 h): 106.5
- Mean DBP (MAD 30 mg BID, D 1 4 h): 62.7 mmHg
- Mean SBP (MAD 30 mg BID, D 1 4 h): 107.2
- Mean DBP (MAD 30 mg BID, D 1 8 h): 63.2 mmHg
- Mean SBP (MAD 30 mg BID, D 1 8 h): 106.3
- Mean DBP (MAD 30 mg BID, D 2 24 h): 66.7 mmHg
- Mean SBP (MAD 30 mg BID, D 2 24 h): 114.7
- Mean DBP (MAD 30 mg BID, D 14 312 h): 68.7 mmHg
- Mean SBP (MAD 30 mg BID, D 14 312 h): 119.7
- Mean DBP (MAD 30 mg BID, D 14 314 h): 63.8 mmHg
- Mean SBP (MAD 30 mg BID, D 14 314 h): 109.7
- Mean DBP (MAD 30 mg BID, D 14 317 h): 61 mmHg
- Mean SBP (MAD 30 mg BID, D 14 317 h): 114.3
- Mean SBP (MAD 30 mg BID, D 14 320 h): 110.0
- Mean DBP (MAD 30 mg BID, D 15 336 h): 65.3 mmHg
- Mean SBP (MAD 30 mg BID, D 15 336 h): 116.3
- Maximum of mean (±SD) reduction in DBP from baseline (MAD 30 mg QD (B2)): 8.8 ± 4.62 mmHg
- Maximum of mean (±SD) reduction in SBP from baseline (MAD 30 mg QD (B2)): 10.7 ± 7.06 mmHg
- Mean DBP (MAD 30 mg QD, D 1 2 h): 66.5 mmHg
- Mean SBP (MAD 30 mg QD, D 1 2 h): 104.8
- Mean DBP (MAD 30 mg QD, D 1 4 h): 67.8 mmHg
- Mean SBP (MAD 30 mg QD, D 1 4 h): 102.3
- Mean DBP (MAD 30 mg QD, D 1 8 h): 66 mmHg
- Mean SBP (MAD 30 mg QD, D 1 8 h): 107.2
- Mean DBP (MAD 30 mg QD, D 2 24 h): 67.3 mmHg
- Mean SBP (MAD 30 mg QD, D 2 24 h): 114.3
- Mean DBP (MAD 30 mg QD, D 14 312 h): 63.3 mmHg
- Mean SBP (MAD 30 mg QD, D 14 312 h): 110.0
- Mean DBP (MAD 30 mg QD, D 14 314 h): 63.5 mmHg
- Mean SBP (MAD 30 mg QD, D 14 314 h): 101.7
- Mean DBP (MAD 30 mg QD, D 14 317 h): 61.8 mmHg
- Mean SBP (MAD 30 mg QD, D 14 317 h): 102.3
- Mean DBP (MAD 30 mg QD, D 14 320 h): 63.2 mmHg
- Mean SBP (MAD 30 mg QD, D 14 320 h): 101.5
- Mean DBP (MAD 30 mg QD, D 15 336 h): 62.3 mmHg
- Mean SBP (MAD 30 mg QD, D 15 336 h): 107.3
- Maximum of mean (±SD) reduction in DBP from baseline (MAD 60 mg BID (B4)): 8.3 ± 6.89 mmHg
- Maximum of mean (±SD) reduction in SBP from baseline (MAD 60 mg BID (B4)): 17.5 ± 11.31 mmHg
- Time of maximum mean DBP reduction (MAD 60 mg BID (B4)): 3-4 Day-h
- Mean DBP (MAD 60 mg BID, D 1 2 h): 64.5 mmHg
- Mean SBP (MAD 60 mg BID, D 1 2 h): 110.2
- Mean DBP (MAD 60 mg BID, D 1 4 h): 66 mmHg
- Mean SBP (MAD 60 mg BID, D 1 4 h): 106.7
- Mean DBP (MAD 60 mg BID, D 1 8 h): 64.7 mmHg
- Mean SBP (MAD 60 mg BID, D 1 8 h): 109.3
- Mean DBP (MAD 60 mg BID, D 2 24 h): 65.7 mmHg
- Mean SBP (MAD 60 mg BID, D 2 24 h): 118.8
- Mean DBP (MAD 60 mg BID, D 14 312 h): 64.8 mmHg
- Mean SBP (MAD 60 mg BID, D 14 312 h): 111.8
- Mean DBP (MAD 60 mg BID, D 14 314 h): 64 mmHg
- Mean SBP (MAD 60 mg BID, D 14 314 h): 110.5
- Mean DBP (MAD 60 mg BID, D 14 317 h): 62.5 mmHg
- Mean SBP (MAD 60 mg BID, D 14 317 h): 114.8
- Mean DBP (MAD 60 mg BID, D 14 320 h): 63 mmHg
- Mean SBP (MAD 60 mg BID, D 14 320 h): 115.5
- Mean DBP (MAD 60 mg BID, D 15 336 h): 64.5 mmHg
- Mean SBP (MAD 60 mg BID, D 15 336 h): 114.5
- Maximum of mean (±SD) reduction in DBP from baseline (MAD 125 mg BID (B5)): 14.7 ± 5.68 mmHg
- Maximum of mean (±SD) reduction in SBP from baseline (MAD 125 mg BID (B5)): 14.5 ± 5.86 mmHg
- Time of maximum mean DBP reduction (MAD 125 mg BID (B5)): 12-12 Day-h
- Mean DBP (MAD 125 mg BID, D 1 2 h): 62.3 mmHg
- Mean SBP (MAD 125 mg BID, D 1 2 h): 112.2
- Mean DBP (MAD 125 mg BID, D 1 4 h): 64.7 mmHg
- Mean SBP (MAD 125 mg BID, D 1 4 h): 112.2
- Mean DBP (MAD 125 mg BID, D 1 8 h): 64.7 mmHg
- Mean SBP (MAD 125 mg BID, D 1 8 h): 107.3
- Mean DBP (MAD 125 mg BID, D 2 24 h): 66.3 mmHg
- Mean SBP (MAD 125 mg BID, D 2 24 h): 118.8
- Mean DBP (MAD 125 mg BID, D 14 312 h): 62 mmHg
- Mean SBP (MAD 125 mg BID, D 14 312 h): 111.3
- Mean DBP (MAD 125 mg BID, D 14 314 h): 65 mmHg
- Mean SBP (MAD 125 mg BID, D 14 314 h): 116.0
- Mean DBP (MAD 125 mg BID, D 14 317 h): 59.2 mmHg
- Mean SBP (MAD 125 mg BID, D 14 317 h): 116.3
- Mean DBP (MAD 125 mg BID, D 14 320 h): 61.8 mmHg
- Mean SBP (MAD 125 mg BID, D 14 320 h): 114.5
- Mean DBP (MAD 125 mg BID, D 15 336 h): 63 mmHg
- Mean SBP (MAD 125 mg BID, D 15 336 h): 111.3
- BP reductions versus placebo (MAD BID groups): no clear differences between placebo and the Compound A groups
- Dose dependence of mean SBP and DBP reductions (MAD QD groups): reductions generally occurred in a Compound A dose-dependent manner
